± gives the expanded uncertainty stated by the source.
Assay: activity coefficient (dimensionless); of the first substance listed, at infinite dilution; xn = mol fraction of the nth substance listed
Settings: 101.3 kPa, Liquid, Chromatography, x1 = 0

activity coefficient (303.5 K)	activity coefficient (313.3 K)	activity coefficient (323.3 K)	activity coefficient (333.1 K)	activity coefficient (343.1 K)	activity coefficient (313.2 K)	activity coefficient (302.8 K)	activity coefficient (313.4 K)	activity coefficient (323.1 K)	activity coefficient (332.8 K)	activity coefficient (343.4 K)	SMILES	other results
						21 ± 1.8	17.4 ± 1.5	15.1 ± 1.3	12.5 ± 1.1	10.3 ± 0.89	CCCCCC [hexane] + CCn1cc[n+](C)c1.N#C[B-](C#N)(C#N)C#N	
						58.9 ± 5.1	52.5 ± 4.5	46.7 ± 4	40.7 ± 3.5	34.9 ± 3	CCCCCCCC [octane] + CCn1cc[n+](C)c1.N#C[B-](C#N)(C#N)C#N	
6.33 ± 0.55	6.15 ± 0.53	5.97 ± 0.52	5.78 ± 0.5	5.59 ± 0.48							C#CCCCCC [1-heptyne] + CCn1cc[n+](C)c1.N#C[B-](C#N)(C#N)C#N	
						10.3 ± 0.89	8.21 ± 0.71	7.05 ± 0.61	5.92 ± 0.51	4.88 ± 0.42	CCCCC [pentane] + CCn1cc[n+](C)c1.N#C[B-](C#N)(C#N)C#N	
						85 ± 7.4	78.1 ± 6.8	70.8 ± 6.1	63.5 ± 5.5	55.3 ± 4.8	CCCCCCCCC [nonane] + CCn1cc[n+](C)c1.N#C[B-](C#N)(C#N)C#N	
						37.6 ± 3.3	32.2 ± 2.8	28.1 ± 2.4	23.8 ± 2.1	19.9 ± 1.7	CCCCCCC [heptane] + CCn1cc[n+](C)c1.N#C[B-](C#N)(C#N)C#N	
9.64 ± 0.83	9.42 ± 0.81	9.11 ± 0.79	8.84 ± 0.76								C#CCCCCCC [1-octyne] + CCn1cc[n+](C)c1.N#C[B-](C#N)(C#N)C#N	activity coefficient (342.8 K): 8.58 ± 0.74
30.1 ± 2.6		24 ± 2.1	21.5 ± 1.9	19 ± 1.6	26.8 ± 2.3						C=CCCCCCC [oct-1-ene] + CCn1cc[n+](C)c1.N#C[B-](C#N)(C#N)C#N	

The next lines start with the compound.

SMILES	activity coefficient (303.5 K)	activity coefficient (313.3 K)	activity coefficient (323.3 K)	activity coefficient (333.1 K)	activity coefficient (343.1 K)	activity coefficient (313.2 K)	activity coefficient (302.8 K)	activity coefficient (313.4 K)	activity coefficient (323.1 K)	activity coefficient (332.8 K)	activity coefficient (343.4 K)	other results
C#CCCC [1-pentyne] + CCn1cc[n+](C)c1.N#C[B-](C#N)(C#N)C#N	2.72 ± 0.23	2.61 ± 0.23	2.5 ± 0.22	2.38 ± 0.21	2.29 ± 0.2							
C=CCCCC [hex-1-ene] + CCn1cc[n+](C)c1.N#C[B-](C#N)(C#N)C#N	11.3 ± 0.97		8.39 ± 0.72	7.35 ± 0.63	6.27 ± 0.54	9.74 ± 0.84						
Cc1ccc(C)cc1 [1,4-dimethylbenzene] + CCn1cc[n+](C)c1.N#C[B-](C#N)(C#N)C#N						2.85 ± 0.25						activity coefficient (303.7 K): 2.78 ± 0.24; activity coefficient (323.2 K): 2.87 ± 0.25; activity coefficient (333.3 K): 2.85 ± 0.25; activity coefficient (343.2 K): 2.84 ± 0.24
CO [methanol] + CCn1cc[n+](C)c1.N#C[B-](C#N)(C#N)C#N	1.13 ± 0.09	1.05 ± 0.09	0.97 ± 0.08	0.91 ± 0.08	0.85 ± 0.07							
CCO [ethanol] + CCn1cc[n+](C)c1.N#C[B-](C#N)(C#N)C#N	1.64 ± 0.14	1.5 ± 0.13	1.37 ± 0.12	1.27 ± 0.11	1.16 ± 0.1							
Cc1ccccc1C [1,2-dimethylbenzene] + CCn1cc[n+](C)c1.N#C[B-](C#N)(C#N)C#N		2.53 ± 0.22			2.54 ± 0.22							activity coefficient (303.6 K): 2.49 ± 0.21; activity coefficient (323.2 K): 2.58 ± 0.22; activity coefficient (333.2 K): 2.56 ± 0.22
CC1CCCCC1 [methylcyclohexane] + CCn1cc[n+](C)c1.N#C[B-](C#N)(C#N)C#N							20.7 ± 1.8	18.9 ± 1.6	16.9 ± 1.5	15.2 ± 1.3	13.3 ± 1.1	
C1CCCCC1 [cyclohexane] + CCn1cc[n+](C)c1.N#C[B-](C#N)(C#N)C#N							13.8 ± 1.2	12.4 ± 1.1	11.2 ± 0.97	9.85 ± 0.85	8.64 ± 0.75	
CCCO [propan-1-ol] + CCn1cc[n+](C)c1.N#C[B-](C#N)(C#N)C#N	2.12 ± 0.18	1.92 ± 0.17	1.74 ± 0.15	1.6 ± 0.14	1.46 ± 0.12							
Cc1ccccc1 [toluene] + CCn1cc[n+](C)c1.N#C[B-](C#N)(C#N)C#N						1.92 ± 0.16			1.98 ± 0.17			activity coefficient (303.6 K): 1.9 ± 0.16; activity coefficient (333.2 K): 1.94 ± 0.17; activity coefficient (343.3 K): 1.92 ± 0.16
C=CCCCCCCCC [1-decene] + CCn1cc[n+](C)c1.N#C[B-](C#N)(C#N)C#N	60.5 ± 5.2		51.5 ± 4.5	47.8 ± 4.1	43.4 ± 3.8	56 ± 4.8						
C#CCCCC [1-hexyne] + CCn1cc[n+](C)c1.N#C[B-](C#N)(C#N)C#N	4.18 ± 0.36	4.04 ± 0.35	3.92 ± 0.34	3.77 ± 0.33	3.58 ± 0.31							
Cc1cccc(C)c1 [1,3-dimethylbenzene] + CCn1cc[n+](C)c1.N#C[B-](C#N)(C#N)C#N				3.01 ± 0.26	2.99 ± 0.26	2.99 ± 0.26						activity coefficient (303.6 K): 2.92 ± 0.25; activity coefficient (323.2 K): 3.03 ± 0.26
c1ccccc1 [benzene] + CCn1cc[n+](C)c1.N#C[B-](C#N)(C#N)C#N		1.31 ± 0.11										activity coefficient (303.6 K): 1.31 ± 0.11; activity coefficient (323.2 K): 1.34 ± 0.11; activity coefficient (333.3 K): 1.31 ± 0.11; activity coefficient (343.2 K): 1.3 ± 0.11
CCc1ccccc1 [ethylbenzene] + CCn1cc[n+](C)c1.N#C[B-](C#N)(C#N)C#N						3 ± 0.26			3.05 ± 0.26			activity coefficient (303.6 K): 3 ± 0.26; activity coefficient (333.2 K): 2.97 ± 0.26; activity coefficient (343.3 K): 2.92 ± 0.25

— the NIST ThermoML archive (doi:10.1016/j.jct.2010.02.006)
